Experiment in all cases: Competitive isoTOP-ABPP, cell lysates
Holding throughout (assay type): binding

Assay [1] deals with XPO1 C528 (O14980) (Homo sapiens, UniProt O14980).
In assay [2] the target is DCUN1D1 C115 (Q96GG9) (Homo sapiens, UniProt Q96GG9).
The target in assay [3] is UBE2L3 C86 (P68036) (Homo sapiens, UniProt P68036).
The target in assay [4] is T1, PDIA6 C190 (Q15084) (Homo sapiens, UniProt Q15084).
T1 sequence (Q15084 20-440): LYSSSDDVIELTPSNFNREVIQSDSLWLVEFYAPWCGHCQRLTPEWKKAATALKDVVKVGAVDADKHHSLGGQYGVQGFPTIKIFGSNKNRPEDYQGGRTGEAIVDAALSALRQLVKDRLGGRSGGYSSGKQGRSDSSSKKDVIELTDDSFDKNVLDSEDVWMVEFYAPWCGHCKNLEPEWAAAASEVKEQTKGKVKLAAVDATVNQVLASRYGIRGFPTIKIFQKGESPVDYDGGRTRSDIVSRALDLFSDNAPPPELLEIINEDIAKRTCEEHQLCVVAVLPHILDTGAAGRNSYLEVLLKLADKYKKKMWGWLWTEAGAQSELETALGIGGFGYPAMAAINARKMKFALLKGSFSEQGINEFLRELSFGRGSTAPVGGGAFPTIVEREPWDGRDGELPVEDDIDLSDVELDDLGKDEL

For assay [5], the target named is STAT3 C259 (P40763) (Homo sapiens, UniProt P40763).
Assay [6] has as its target SMARCC2 C145 (Q8TAQ2) (Homo sapiens, UniProt Q8TAQ2).
For assay [7], the target named is GNB2L1 C182 (P63244) (Homo sapiens, UniProt P63244).
Assay [8] concerns the target SAMHD1 C522 (Q9Y3Z3) (Homo sapiens, UniProt Q9Y3Z3).
Assay [9] addresses GSTP1 C48 (P09211) (Homo sapiens, UniProt P09211).
Assay [10] deals with T2, MGMT C150 (P16455) (Homo sapiens, UniProt P16455).
T2 sequence (P16455 1-207): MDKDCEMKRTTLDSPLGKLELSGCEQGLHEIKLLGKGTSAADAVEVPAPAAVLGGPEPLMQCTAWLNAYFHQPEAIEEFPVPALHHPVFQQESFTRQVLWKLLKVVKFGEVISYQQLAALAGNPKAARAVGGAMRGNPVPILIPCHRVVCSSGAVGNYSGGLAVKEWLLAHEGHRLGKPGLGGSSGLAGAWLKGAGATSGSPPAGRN

Assay [11] deals with XPO1 C34 (O14980) (Homo sapiens, UniProt O14980).

Several values for one entry are separate records, joined by “and”; a condition that tells them apart may be missing. Equal values may be shown once.

The text below walks through data of patent publication US10670605B2, “Cysteine reactive probes and uses thereof” (The Scripps Research Institute, priority 2015, dated 2020).

With `C=CC(=O)N(Cc1cccnc1)c1ccc(Oc2ccccc2)c(C(F)(F)F)c1` [compound 15], the “isoTOP-ABPP ratio O14980_C528” value in [1] (500 μM, invitro, 231) worked out at 0.8. Moreover, the “isoTOP-ABPP ratio (reactivity profile), O14980_C528” value in [1] (500 μm in-vitro ramos) was determined as 1.0. Besides, the “isoTOP-ABPP ratio (reactivity profile), Q96GG9_C115” value (“isoTOP-ABPP ratio … Q96GG9_C115” below) in assay [2] (500 μm in-vitro ramos) amounted to 0.8. In addition, in assay [3] (500 μm in-vitro ramos), the “isoTOP-ABPP ratio (reactivity profile), P68036_C86” value (from here on “isoTOP-ABPP ratio … P68036_C86”) was 1.3. For the same molecule, in assay [4] (500 μM, invitro, 231), the “isoTOP-ABPP ratio, Q15084_C190” value was found to be 0.9. In addition, the “isoTOP-ABPP ratio (reactivity profile), Q15084_C190” value in assay [4] (500 μm in-vitro ramos) was 1.2. For the same molecule, in assay [5] (500 μm in-vitro ramos), the “isoTOP-ABPP ratio (reactivity profile), P40763_C259” value (from here on “isoTOP-ABPP ratio … P40763_C259”) came to 1.9. Moreover, in assay [6] (500 μm in-vitro ramos), the “isoTOP-ABPP ratio (reactivity profile), Q8TAQ2_C145” value (shortened to “isoTOP-ABPP ratio … Q8TAQ2_C145”) was determined as 1.2. Moreover, the “isoTOP-ABPP ratio (reactivity profile), P63244_C182” value (“isoTOP-ABPP ratio … P63244_C182” below) in [7] (500 μm in-vitro ramos) is recorded as 1.3. Further, in [8] (500 μm in-vitro ramos), the “isoTOP-ABPP ratio (reactivity profile), Q9Y3Z3_C522” value (from here on “isoTOP-ABPP ratio … Q9Y3Z3_C522”) is given as 1.6. Also, the “isoTOP-ABPP ratio, P09211_C48” value in assay [9] (500 μM, invitro, 231) came to 2.5. In addition, the “isoTOP-ABPP ratio (reactivity profile), P09211_C48” value in assay [9] (500 μm in-vitro ramos) turned out to be 1.3. Besides, the “isoTOP-ABPP ratio (reactivity profile), P16455_C150” value (shortened to “isoTOP-ABPP ratio … P16455_C150”) in assay [10] (500 μm in-vitro ramos) is reported as 1.9. In addition, the “isoTOP-ABPP ratio (reactivity profile), O14980_C34” value (“isoTOP-ABPP ratio … O14980_C34” below) in [11] (500 μm in-vitro ramos) was 1.2.

On to `O=C(CCl)N1CCC(C(O)(c2ccccc2)c2ccccc2)CC1` [compound 20], for which the “isoTOP-ABPP ratio (reactivity profile), O14980_C528” value in [1] (500 μm in-vitro ramos) is listed as 4.0; in [1] (500 μm in-vitro ramos_231) it was 1.4. Besides, the “isoTOP-ABPP ratio … Q96GG9_C115” value in assay [2] (500 μm in-vitro ramos) and in assay [2] (500 μm in-vitro ramos_231) was 1.2 throughout. In addition, the “isoTOP-ABPP ratio … P68036_C86” value in assay [3] (500 μm in-vitro ramos) was 1.2; in [3] (500 μm in-vitro ramos_231), 1.1. The “isoTOP-ABPP ratio (reactivity profile), Q15084_C190” value in assay [4] (500 μm in-vitro ramos) and in assay [4] (500 μm in-vitro ramos_231) was 2.1 throughout. Besides, the “isoTOP-ABPP ratio … P40763_C259” value in assay [5] (500 μm in-vitro ramos) is listed as 3.0. Moreover, the entries for the “isoTOP-ABPP ratio … Q8TAQ2_C145” value in assay [6] (500 μm in-vitro ramos) and in assay [6] (500 μm in-vitro ramos_231) were 3.9 and 2.9, respectively. In addition, the “isoTOP-ABPP ratio … P63244_C182” value in [7] (500 μm in-vitro ramos) came out at 1.1; in assay [7] (500 μm in-vitro ramos_231), 1.4. The “isoTOP-ABPP ratio … Q9Y3Z3_C522” value in [8] (500 μm in-vitro ramos) is reported as 1.3; in assay [8] (500 μm in-vitro ramos_231), 2.1. Besides, the “isoTOP-ABPP ratio (reactivity profile), P09211_C48” value in [9] (500 μm in-vitro ramos) was 1.1; in assay [9] (500 μm in-vitro ramos_231), 2.5. Moreover, the “isoTOP-ABPP ratio … P16455_C150” value in [10] (500 μm in-vitro ramos) was 18.3. Besides, the “isoTOP-ABPP ratio … O14980_C34” value is on record as 1.2 in [11] (500 μm in-vitro ramos) and 1.0 in assay [11] (500 μm in-vitro ramos_231).

In the case of `O=C(CCl)NC12CC3CC(CC(C3)C1)C2` [compound 21], the “isoTOP-ABPP ratio (reactivity profile), O14980_C528” value was determined as 0.8 in assay [1] (500 μm in-vitro ramos) and 0.9 in [1] (500 μm in-vitro ramos_231). Moreover, the “isoTOP-ABPP ratio … Q96GG9_C115” value in assay [2] (500 μm in-vitro ramos) and in assay [2] (500 μm in-vitro ramos_231) was 1.0 each time. Also, the “isoTOP-ABPP ratio … P68036_C86” value in assay [3] (500 μm in-vitro ramos) is 2.0; in assay [3] (500 μm in-vitro ramos_231), 1.2. The “isoTOP-ABPP ratio (reactivity profile), Q15084_C190” value is 2.3 in assay [4] (500 μm in-vitro ramos) and 1.1 in [4] (500 μm in-vitro ramos_231). The “isoTOP-ABPP ratio … P40763_C259” value in [5] (500 μm in-vitro ramos) is on record as 2.9. Besides, the “isoTOP-ABPP ratio … Q8TAQ2_C145” value in [6] (500 μm in-vitro ramos_231) is 1.2. Also, the “isoTOP-ABPP ratio … P63244_C182” value in assay [7] (500 μm in-vitro ramos) and in assay [7] (500 μm in-vitro ramos_231) was 0.9 each time. Moreover, the “isoTOP-ABPP ratio … Q9Y3Z3_C522” value in [8] (500 μm in-vitro ramos) was 1.4. The “isoTOP-ABPP ratio (reactivity profile), P09211_C48” value is 1.3 in [9] (500 μm in-vitro ramos) and 1.1 in assay [9] (500 μm in-vitro ramos_231). For the same molecule, the “isoTOP-ABPP ratio … P16455_C150” value in [10] (500 μm in-vitro ramos) amounted to 17.2. The “isoTOP-ABPP ratio … O14980_C34” value turned out to be 1.2 in [11] (500 μm in-vitro ramos) and 0.9 in [11] (500 μm in-vitro ramos_231).

For the molecule `CC(C)CCOCCNC(=O)CCl` [compound 27], the “isoTOP-ABPP ratio (reactivity profile), O14980_C528” value in assay [1] (500 μm in-vitro ramos) was 0.8; in assay [1] (500 μm in-vitro ramos_231), 1.2 and 0.9. Moreover, the “isoTOP-ABPP ratio … Q96GG9_C115” value in assay [2] (500 μm in-vitro ramos) was found to be 1.0; in [2] (500 μm in-vitro ramos_231), 1.1. For the same molecule, the “isoTOP-ABPP ratio … P68036_C86” value in [3] (500 μm in-vitro ramos_231) was 1.2 and 0.9. Further, the “isoTOP-ABPP ratio (reactivity profile), Q15084_C190” value in assay [4] (500 μm in-vitro ramos) is 1.1; in assay [4] (500 μm in-vitro ramos_231), 0.9. Moreover, the “isoTOP-ABPP ratio … P40763_C259” value in assay [5] (500 μm in-vitro ramos_231) came out at 0.7. Besides, the “isoTOP-ABPP ratio … Q8TAQ2_C145” value in assay [6] (500 μm in-vitro ramos) amounted to 1.2; in assay [6] (500 μm in-vitro ramos_231), 0.9. The “isoTOP-ABPP ratio … P63244_C182” value is 1.1 in assay [7] (500 μm in-vitro ramos); 1.0 and 0.8 in assay [7] (500 μm in-vitro ramos_231). The “isoTOP-ABPP ratio … Q9Y3Z3_C522” value is 0.9 in assay [8] (500 μm in-vitro ramos); 0.8 and 1.0 in assay [8] (500 μm in-vitro ramos_231). Also, the “isoTOP-ABPP ratio (reactivity profile), P09211_C48” value is 1.0 in assay [9] (500 μm in-vitro ramos); 1.3 and 1.0 in [9] (500 μm in-vitro ramos_231). The “isoTOP-ABPP ratio … P16455_C150” value in [10] (500 μm in-vitro ramos) amounted to 2.3; in assay [10] (500 μm in-vitro ramos_231), 1.0. The “isoTOP-ABPP ratio … O14980_C34” value in [11] (500 μm in-vitro ramos) is 1.0; in assay [11] (500 μm in-vitro ramos_231) it was 0.9 and 1.0.
